# Patent US20250042884A1, “3-ARYLOXYL-3-FIVE-MEMBERED HETEROARYL PROPYLAMINE COMPOUND AND USE THEREOF” (Shanghai Leado Pharmatech Co. Ltd., priority 2018, published 2025)
# pIC50: −log10 of the molar value.
# Experiments:
# C57BL/6 mice = assay: Mice formalin pain model (acute and inflammatory pain); format: in vivo; conditions: for Licking claw time (s) in phase II (10-60 min): hydrochloride salt, blank vehicle 349.55 ± 43.09
# Text: 150 C57BL/6 mice (male, 9-week aged) were randomly divided into 15 groups, (each group had 10 mice) for the analgesic activity test of 3 compounds in the mice formalin pain model respectively: the compound I-1 group (compound I-1 prepared in Example 2 whose hydrochloride salt was used in the experiment), the S-duloxetine group (its hydrochloride salt was used in the experiment) and the compound C1 group (the compound C1 prepared in Comparative Example 1, whose hydrochloride salt was used in the experiment). Before the start of experiments, the mice were allowed to adapt to the experimental environment for 72 h with free feeding and drinking water. The test drugs were administrated by intraperitoneal injection at a dosage as follows:
# Compound I-1 group: blank vehicle (blank saline control), 0.1 mg/kg, 0.5 mg/kg, 1 mg/kg, 5 mg/kg and 10 mg/kg;
# S-duloxetine group: blank vehicle (blank saline control), 1 mg/kg, 5 mg/kg, 10 mg/kg and 20 mg/kg;
# Compound C1 group: blank vehicle (blank saline control), 0.1 mg/kg, 0.5 mg/kg, 1 mg/kg, 5 mg/kg and 10 mg/kg.
# After administration, the mice were placed in a transparent, ventilated plexiglass cylinder for 1 h, and then 20 μl of 4% formalin solution was injected into the left hind plantar of mice of each group by microinjector, claw pain response in mice were real-time recorded by a mini-camera. The time length of licking left claw were used as an indicator of pain response, licking time in 0-10 min (phase I) and 10-60 min (phase II) were observed and recorded, and the statistical analysis was conducted. The half effective dose (ED50) of 3 compounds were calculated: ED50 referred to the dose of the drug which decreased licking time by half as compared with the blank control group. The smaller the ED50 value was, the lower the effective analgesic dose of the compound was and the better the analgesic effect was.
# TRPA1 = TRPA1 (Mus musculus (Mouse), UniProt Q8BLA8); assay: Manual patch clamp test of TRPA1 inhibitory activity; format: cell-based; conditions: FIG. 2
# TRPA1, sequence (Q8BLA8 whole entry): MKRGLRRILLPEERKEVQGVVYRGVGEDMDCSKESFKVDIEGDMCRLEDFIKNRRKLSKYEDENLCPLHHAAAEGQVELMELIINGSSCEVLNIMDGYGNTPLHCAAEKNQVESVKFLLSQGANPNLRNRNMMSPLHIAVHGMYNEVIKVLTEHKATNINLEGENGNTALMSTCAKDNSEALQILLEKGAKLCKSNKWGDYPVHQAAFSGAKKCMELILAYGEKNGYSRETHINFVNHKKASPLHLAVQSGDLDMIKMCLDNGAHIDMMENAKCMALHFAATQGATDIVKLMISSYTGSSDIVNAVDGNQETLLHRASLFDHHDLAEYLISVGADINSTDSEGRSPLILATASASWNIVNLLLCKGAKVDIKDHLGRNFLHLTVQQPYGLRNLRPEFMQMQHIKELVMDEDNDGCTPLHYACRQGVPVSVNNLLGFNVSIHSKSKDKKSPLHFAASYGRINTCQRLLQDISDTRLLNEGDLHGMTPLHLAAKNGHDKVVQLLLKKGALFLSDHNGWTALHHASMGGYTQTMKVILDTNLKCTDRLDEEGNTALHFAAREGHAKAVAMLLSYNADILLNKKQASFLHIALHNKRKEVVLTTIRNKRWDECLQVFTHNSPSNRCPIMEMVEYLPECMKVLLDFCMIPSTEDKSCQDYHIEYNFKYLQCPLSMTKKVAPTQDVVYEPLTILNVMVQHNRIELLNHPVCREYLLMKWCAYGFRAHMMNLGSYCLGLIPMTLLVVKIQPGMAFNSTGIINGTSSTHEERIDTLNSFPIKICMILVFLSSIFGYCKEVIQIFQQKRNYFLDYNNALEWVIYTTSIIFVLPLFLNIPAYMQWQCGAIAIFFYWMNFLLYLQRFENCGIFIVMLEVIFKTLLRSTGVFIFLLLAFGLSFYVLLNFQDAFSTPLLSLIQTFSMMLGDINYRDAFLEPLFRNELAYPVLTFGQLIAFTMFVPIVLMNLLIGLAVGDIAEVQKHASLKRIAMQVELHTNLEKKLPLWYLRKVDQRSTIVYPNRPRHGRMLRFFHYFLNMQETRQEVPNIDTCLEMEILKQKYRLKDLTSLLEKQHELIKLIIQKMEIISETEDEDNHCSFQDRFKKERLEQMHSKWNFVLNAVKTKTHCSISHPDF
# Experimental: The TRPA1 inhibitory activity of compound I-1 was evaluated by manual patch clamp test method.
# SH-SY5Y cells = assay: Cytotoxicity test (CCK-8), neurotoxicity; format: cell-based; conditions: Homo sapiens, 72 h
# Experimental: In this example, hepatotoxicity and neurotoxicity of compound I-1 and S-duloxetine were detected.
# HepG-2 and SH-SY5Y cells were placed in 10 cm dish and cultured at 37° C., 5% CO2 in a cell incubator. Trypsin was used to digest and resuspend cells and cells were counted. The cells were transferred to 96-well plate with 8000 cells in a well (100 μl/well), cultured at 37° C., 5% CO2 in a cell incubator for 24 hrs. A serial of gradient concentration dilutions of compound I-1 (prepared in example 2 of the present invention) with 2-fold dilution were prepared, and the system was 100 μL/well. The supernatant of cell culture system in the 96-well plate was removed on the first day, and fresh-prepared drug concentration system was add into culture plate wells (duplicate wells were set). The cells were cultured at 37° C., 5% CO2 in a cell incubator for 72 h. […] Microplate reader was used to measure the absorbance at 450 nm. Data was processed to calculate cytotoxicity, and IC50 was calculated by GraphPad Prism. […]
# A (Dosing): the absorbance of wells containing cells, CCK-8 solution and drug solution.
# A (control): the absorbance of wells containing medium and CCK-8 solution and without cells.
# A (0 Dosing): the absorbance of wells containing cells and CCK-8 solution but without drug solution […]
# SD rats = assay: Rat SNL model, mechanical allodynia test (nerve pain); format: in vivo; conditions: 1 h after administration, 10 mg/kg oral, hydrochloride salt; control group 3.967 ± 0.775
# Experimental: Male SPF grade SD rats, weighed 150 g-180 g, were selected. Aseptic operation during surgery was performed. The animals were anesthetized with sodium pentobarbital (50 mg/kg, intraperitoneal injection). The surgical area of animal waist was shaved and the skin was disinfected three times with iodophor and 70% ethanol. After the skin was dried, the operation was started. Surgical knife was used to make a longitudinal incision at the back of the sacrum of the animal waist to expose the left paraspinal muscles, and stretcher was used to separate muscle tissue to expose the spine. The left spinal nerves L5 and L6 were separated and ligated with a 6-0 silk thread, and the wound was sutured. After the operation, the animals were placed on electrothermal pad, and 5 mL of saline was injected subcutaneously to prevent dehydration. After the animals were fully awakened and could move around freely, the animals were put back in the cage.
# After the operation, the animals were adapted in the experimental environment for 15min/day for 3 days.
# The animals were weighed to calculate the dose. […] After administration, mechanical allodynia test was performed. The rat was individually placed in a plexiglass box with a grid on the bottom of the box to ensure that the rat claw could be tested. The rats were allowed to adapt the environment for 15 min before test. After the adaptation was completed, the test fiber was used to test the center of the left hind claw of the rat. The test fiber comprises 8 test strengths: 3.61 (0.4 g), 3.84 (0.6 g), 4.08 (1 g), 4.31 (2 g), 4.56 (4 g), 4.74 (6 g), 4.93 (8 g), and 5.18 (15 g). […] During the test, rapid withdrawal of animal claw was recorded as pain response. When the test fiber was removed from animal skin, the withdrawal of animal claw was also recorded as pain response. If animal moved, the pain response was not recorded, and the test was repeated. […]
# Mechanical allodynia was expressed as withdrawal threshold (PWT) in rat behavioral test, which was calculated with the following formula: […]
smiles,measurement,setting,value
"CNCC[C@@H](Oc1cccc2ccoc12)c1cccs1 [Compound I-1, (R)-3-(benzofuran-7-yloxy)-N-methyl-3-(thiophen-2-yl)propyl-1-amine]",Licking claw time (s) in phase II (10-60 min),C57BL/6 mice; 0.1 mg/kg intraperitoneal,321.55 ± 47.75 s
same,decrease of licking time in phase II (10-60 min) compared with the blank vehicle,C57BL/6 mice; 0.5 mg/kg intraperitoneal,more than 50%
same,Licking claw time (s) in phase II (10-60 min),C57BL/6 mice; 0.5 mg/kg intraperitoneal,161.25 ± 30.83 s
same,Licking claw time (s) in phase II (10-60 min),C57BL/6 mice; 1 mg/kg intraperitoneal,131.28 ± 23.99 s
same,Licking claw time (s) in phase II (10-60 min),C57BL/6 mice; 5 mg/kg intraperitoneal,87.85 ± 25.15 s
same,Licking claw time (s) in phase II (10-60 min),C57BL/6 mice; 10 mg/kg intraperitoneal,99.08 ± 19.73 s
same,ED50 times stronger than S-duloxetine,"C57BL/6 mice; phase II, mice formalin model",30.8 times
same,ED50 times stronger than compound C1,"C57BL/6 mice; phase II, mice formalin model",8.5 times
same,pIC50,TRPA1,6.38
same,pIC50,SH-SY5Y cells,~4.00
same,"PWT(g), claw withdrawal threshold",SD rats,7.869 ± 2.846 g
